SMILES strings stand for the structures. Bounds are passed on as bounds.

The target in this assay is T1, human IDO1 (Homo sapiens, UniProt P14902).
T1 construct: expressed in transfected cells
T1 sequence (P14902 whole entry): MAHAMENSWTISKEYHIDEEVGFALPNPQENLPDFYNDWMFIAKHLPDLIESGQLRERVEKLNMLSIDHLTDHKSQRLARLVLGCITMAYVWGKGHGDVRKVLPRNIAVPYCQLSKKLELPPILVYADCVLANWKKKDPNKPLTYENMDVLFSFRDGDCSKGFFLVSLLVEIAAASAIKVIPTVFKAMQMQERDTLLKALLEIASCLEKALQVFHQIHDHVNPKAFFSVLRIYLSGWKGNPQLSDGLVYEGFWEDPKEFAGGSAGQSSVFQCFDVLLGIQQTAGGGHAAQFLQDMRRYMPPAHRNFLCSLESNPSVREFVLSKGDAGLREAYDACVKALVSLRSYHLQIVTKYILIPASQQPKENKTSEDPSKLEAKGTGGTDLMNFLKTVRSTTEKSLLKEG
Kind of assay: HEK Human IDO-1 inhibition assay (kynurenine production in human IDO1/HEK293 cells). In kind it is cell-based. Conditions: read-out: Bio Activity (μM) IC50. The method, then:
HEK293 cells were transfected with a pCDNA-based mammalian expression vector harboring human IDO1 cDNA (NM 002164.2) by electroporation. They were cultured in medium (DMEM with 10% FBS) containing 1 mg/ml G418 for two weeks. Clones of HEK293 cells that stably expressed human IDO1 protein were selected and expanded for IDO inhibition assay.
The human IDO1/HEK293 cells were seeded at 10,000 cells per 50 μL per well with RPMI/phenol red free media contains 10% FBS in a 384-well black wall clear bottom tissue culture plate (Matrix Technologies LLC) 100 nL of certain concentration of compound was then added to each well using ECHO liquid handling systems. The cells were incubated for 20 hours in 37° C. incubator with 5% CO2.
The compound treatments were stopped by adding trichloroacetic acid (Sigma-Aldrich) to a final concentration at 0.2%. The cell plate was further incubated at 50° C. for 30 minute. The equal volume supernatant (20 μL) and 0.2% (w/v) Ehrlich reagent (4-dimethylaminobenzaldehyde, Sigma-Aldrich) in glacial acetic acid were mixed in a new clear bottom 384-well plate. This plate was then incubated at room temperature for 30 minute. The absorbance at 490 nm was measured on Envision plate reader.
Compound IC50 values were calculated using the counts of 500 nM of a reference standard treatment as one hundred percent inhibition, and counts of no compound but DMSO treatment as zero percent inhibition.
As for `CCCC(C(=O)NC12CC3CC(CC(C3)C1)C2)N1CCN(c2ccnc3ccc(F)cc23)CC1` (single isomer, unassigned) [Example 19-1], the half-maximal inhibitory concentration (IC50) (commonly the concentration at which inhibition is half-maximal) was less than 10 µM.

Regarding `Cc1cc(Cl)ccc1CNC(=O)CC1(C)CCN(c2ccnc3ccc(F)cc23)CC1` [Example 1, N-(4-Chloro-2-methylbenzyl)-2-(1-(6-fluoroquinolin-4-yl)-4-methylpiperidin-4-yl)acetamide], the IC50 is less than 0.1 µM. Next, `CC1(CC(=O)NC2(c3ccc(Cl)cc3Cl)CC2)CCN(c2ccnc3ccc(F)cc23)CC1` [Example 2, N-(1-(2,4-dichlorophenyl)cyclo-propyl)-2-(1-(6-fluoroquinolin-4-yl)-4-methylpiperidin-4-yl)acetamide]: less than 0.1 µM; `CC1(CC(=O)NC(C)(C)c2ccc(Cl)cc2)CCN(c2ccnc3ccc(F)cc23)CC1` [Example 3, N-(2-(4-chlorophenyl)propan-2-yl)-2-(1-(6-fluoroquinolin-4-yl)-4-methylpiperidin-4-yl)acetamide]: less than 0.1 µM; `C[C@H](NC(=O)CC1(C)CCN(c2ccnc3ccc(F)cc23)CC1)c1ccc(Cl)cc1` [Example 4, (S)-N-(1-(4-chlorophenyl)ethyl)-2-(1-(6-fluoroquinolin-4-yl)-4-methylpiperidin-4-yl)acetamide]: less than 0.1 µM. As to `CC1(CC(=O)NCc2ccc(Cl)cc2)CCN(c2ccnc3ccc(F)cc23)CC1` [Example 5, N-(4-chlorobenzyl)-2-(1-(6-fluoroquinolin-4-yl)-4-methylpiperidin-4-yl)acetamide], the IC50 is less than 1 µM. In the case of `CC[C@H](NC(=O)CC1(C)CCN(c2ccnc(C(F)(F)F)c2)CC1)c1ccccc1` [Example 6, (S)-2-(4-Methyl-1-(2-(trifluoromethyl)pyridin-4-yl)piperidin-4-yl)-N-(1-phenylpropyl)acetamide] it was less than 1 µM; in that of `CC1(CC(=O)NC2(c3ccc(Cl)cc3Cl)CC2)CCN(c2ccnc(C(F)(F)F)c2)CC1` [Example 7, N-(1-(2,4-dichlorophenyl)cyclo-propyl)-2-(4-methyl-1-(2-(trifluoro-methyl)pyridin-4-yl)piperidin-4-yl)acetamide], less than 1 µM. In the case of `CC1(CC(=O)NC(C)(C)c2ccc(Cl)cc2)CCN(c2ccnc(C(F)(F)F)c2)CC1` [Example 8, N-(2-(4-chlorophenyl)propan-2-yl)-2-(4-methyl-1-(2-(trifluoromethyl)-pyridin-4-yl)piperidin-4-yl)acetamide] it was less than 10 µM. Next, `C[C@H](NC(=O)CC1(C)CCN(c2ccnc(C(F)(F)F)c2)CC1)c1ccc(Cl)cc1` [Example 9, (S)-N-(1-(4-chlorophenyl)ethyl)-2-(4-methyl-1-(2-(trifluoromethyl)-pyridin-4-yl)piperidin-4-yl)acetamide]: less than 1 µM. `C[C@@H](C(=O)NCc1ccccc1Cl)[C@H]1CC[C@@H](c2ccnc3ccc(F)cc32)CC1` [Example 10, (R)—N-(2-chlorobenzyl)-2-((cis)-4-(6-fluoroquinolin-4-yl)cyclohexyl)propanamide]: the IC50 is less than 1 µM. In the case of `C[C@@H](C(=O)NCc1ccc(-c2ccccc2)cc1)[C@H]1CC[C@@H](c2ccnc3ccc(F)cc32)CC1` [Example 12, (R)-N-([1,1′-biphenyl]-4-ylmethyl)-2-((cis)-4-(6-fluoroquinolin-4-yl)cyclohexyl)propanamide] it was less than 1 µM; in that of `C[C@H](NC(=O)[C@H](C)[C@H]1CC[C@@H](c2ccnc3ccc(F)cc32)CC1)c1ccccc1` [Example 13, (R)-2-((cis)-4-(6-fluoroquinolin-4-yl)cyclohexyl)-N-((S)-1-phenylethyl)propanamide], less than 1 µM; in that of `C[C@H](NC(=O)[C@H](C)[C@H]1CC[C@@H](c2ccnc3ccc(F)cc32)CC1)c1ccc(Cl)cc1` [Example 14, (R)-N-((S)-1-(4-chlorophenyl)ethyl)-2-((cis)-4-(6-fluoroquinolin-4-yl)cyclohexyl)propanamide], less than 0.1 µM. Next, `C[C@@H](C(=O)NC(C)(C)c1ccc(Cl)cc1)[C@H]1CC[C@@H](c2ccnc3ccc(F)cc32)CC1` [Example 15, (R)-N-(2-(4-chlorophenyl)propan-2-yl)-2-((cis)-4-(6-fluoroquinolin-4-yl)cyclohexyl)propanamide]: less than 1 µM; `C[C@@H](C(=O)NC1(c2ccc(Cl)cc2Cl)CC1)[C@H]1CC[C@@H](c2ccnc3ccc(F)cc32)CC1` [Example 16, (R)-N-(1-(2,4-dichlorophenyl)cyclopropyl)-2-((cis)-4-(6-fluoroquinolin-4-yl)cyclohexyl)propanamide]: less than 1 µM. As to `C[C@@H](NC(=O)[C@H](C)[C@H]1CC[C@@H](c2ccnc3ccc(F)cc32)CC1)c1ccc(Cl)cc1` [Example 17, (R)-N-((R)-1-(4-chlorophenyl)ethyl)-2-((1s,4S)-4-(6-fluoroquinolin-4-yl)cyclohexyl)propanamide], the IC50 is less than 10 µM. In the case of `C[C@@H](C(=O)NCc1ccccc1)[C@H]1CC[C@@H](c2ccnc3ccc(F)cc32)CC1` [Example 18] it was less than 10 µM; in that of `CC1(CC(=O)NC23CC4CC(CC(C4)C2)C3)CCN(c2ccnc3ccc(F)cc23)CC1` [Example 22, N-((3s,5s,7s)-Adamantan-1-yl)-2-(1-(6-fluoroquinolin-4-yl)-4-methylpiperidin-4-yl)acetamide], less than 0.1 µM; in that of `CC1(CC(=O)N[C@@]23C[C@@H]4C[C@@H](C[C@@](O)(C4)C2)C3)CCN(c2ccnc3ccc(F)cc23)CC1` [Example 23, 2-(1-(6-Fluoroquinolin-4-yl)-4-methylpiperidin-4-yl)-N-((1r,3s,5R,7S)-3-hydroxyadamantan-1-yl)acetamide], less than 1 µM.

The values are drawn from patent US11066383B2, “Inhibitors of indoleamine 2,3-dioxygenase and methods of their use” (BRISTOL-MYERS SQUIBB COMPANY, priority 2016, dated 2021).
